# Results reported in ChEMBL document CHEMBL4396870, “Pharmacological Chaperones for the Treatment of α-Mannosidosis” (J Med Chem, 2019).
# The source made the active and inactive calls. No cut-off for these calls is given here.
# Tests used:
# Saccharomyces cerevisiae [1] = experiment: Inhibition of yeast alpha-glucosidase assessed as residual hydrolytic activity up to 2 mM after 10 to 30 mins by spectrophotometric analysis
# Saccharomyces cerevisiae [2] = experiment: Inhibition of yeast isomaltase assessed as residual hydrolytic activity up to 2 mM after 10 to 30 mins by spectrophotometric analysis
# Aspergillus niger = experiment: Inhibition of Aspergillus niger amyloglucosidase assessed as residual hydrolytic activity up to 2 mM after 10 to 30 mins by spectrophotometric analysis
# [3] = biological target: Alpha-galactosidase (Coffea arabica) (UniProt Q42656); experiment: Inhibition of green coffee alpha-galactosidase assessed as residual hydrolytic activity up to 2 mM after 10 to 30 mins by spectrophotometric analysis
# [4] = biological target: Beta-galactosidase (Escherichia coli) (UniProt Q8VNN2); experiment: Inhibition of Escherichia coli beta-galactosidase assessed as residual hydrolytic activity up to 2 mM after 10 to 30 mins by spectrophotometric analysis
# Helix pomatia = experiment: Inhibition of Helix pomatia beta-mannosidase assessed as residual hydrolytic activity up to 2 mM after 10 to 30 mins by spectrophotometric analysis
# [5] = Inhibition of Helix pomatia beta-mannosidase assessed as residual hydrolytic activity after 10 to 30 mins by spectrophotometric analysis; conditions: read-out: Ki
# [6] = Inhibition of bovine liver beta-glucosidase assessed as residual hydrolytic activity after 10 to 30 mins by spectrophotometric analysis; design: species or system Bos taurus
# [7] = Inhibition of almond beta-glucosidase assessed as residual hydrolytic activity after 10 to 30 mins by spectrophotometric analysis; design: species or system Prunus dulcis
# Alpha-mannosidase = biological target: T1, Alpha-mannosidase (Canavalia ensiformis, UniProt C0HJB3); experiment: Inhibition of jack bean Lysosomal alpha-mannosidase assessed as residual hydrolytic activity after 10 to 30 mins by spectrophotometric analysis
# T1 sequence (C0HJB3 whole entry): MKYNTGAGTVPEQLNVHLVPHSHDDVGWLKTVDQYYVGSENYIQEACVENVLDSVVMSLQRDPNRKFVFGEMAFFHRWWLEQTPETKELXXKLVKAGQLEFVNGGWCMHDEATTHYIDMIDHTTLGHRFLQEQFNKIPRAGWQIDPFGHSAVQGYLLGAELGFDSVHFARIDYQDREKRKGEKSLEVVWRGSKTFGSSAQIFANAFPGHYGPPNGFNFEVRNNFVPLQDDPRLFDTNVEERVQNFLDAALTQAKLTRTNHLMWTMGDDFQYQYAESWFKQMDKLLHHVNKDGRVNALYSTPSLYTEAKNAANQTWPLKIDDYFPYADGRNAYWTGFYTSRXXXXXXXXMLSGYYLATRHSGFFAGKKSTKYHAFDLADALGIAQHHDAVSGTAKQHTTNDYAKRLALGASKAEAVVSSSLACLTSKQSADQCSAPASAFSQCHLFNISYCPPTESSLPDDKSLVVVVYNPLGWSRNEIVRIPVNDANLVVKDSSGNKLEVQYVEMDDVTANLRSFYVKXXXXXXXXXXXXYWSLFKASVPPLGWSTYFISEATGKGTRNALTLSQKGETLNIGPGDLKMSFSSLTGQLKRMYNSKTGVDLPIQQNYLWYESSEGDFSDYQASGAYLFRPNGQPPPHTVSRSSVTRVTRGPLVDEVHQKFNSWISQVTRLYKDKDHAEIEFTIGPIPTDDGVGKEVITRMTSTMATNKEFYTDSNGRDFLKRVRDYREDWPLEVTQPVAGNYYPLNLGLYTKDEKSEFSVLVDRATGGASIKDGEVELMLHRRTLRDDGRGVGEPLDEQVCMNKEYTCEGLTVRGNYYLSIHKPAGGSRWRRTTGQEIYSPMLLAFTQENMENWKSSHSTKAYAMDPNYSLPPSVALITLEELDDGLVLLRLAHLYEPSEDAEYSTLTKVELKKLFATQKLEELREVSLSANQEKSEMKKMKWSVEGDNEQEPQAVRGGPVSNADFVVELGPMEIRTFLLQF
# Chain of Alpha-galactosidase (Coffea arabica) (Q42656 16-378 limits assumed): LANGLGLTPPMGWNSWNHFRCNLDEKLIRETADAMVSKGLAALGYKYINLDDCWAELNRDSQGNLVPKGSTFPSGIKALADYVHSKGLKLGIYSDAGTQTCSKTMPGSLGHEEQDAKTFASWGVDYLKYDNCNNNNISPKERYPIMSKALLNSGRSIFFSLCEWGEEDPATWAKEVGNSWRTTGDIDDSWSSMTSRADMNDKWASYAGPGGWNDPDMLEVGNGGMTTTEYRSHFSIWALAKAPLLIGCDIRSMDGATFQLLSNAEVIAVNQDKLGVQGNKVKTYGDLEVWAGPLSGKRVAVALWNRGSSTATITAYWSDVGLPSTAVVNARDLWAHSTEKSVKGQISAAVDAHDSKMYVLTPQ
# Chain of Beta-galactosidase (Escherichia coli) (Q8VNN2 whole entry, looked up): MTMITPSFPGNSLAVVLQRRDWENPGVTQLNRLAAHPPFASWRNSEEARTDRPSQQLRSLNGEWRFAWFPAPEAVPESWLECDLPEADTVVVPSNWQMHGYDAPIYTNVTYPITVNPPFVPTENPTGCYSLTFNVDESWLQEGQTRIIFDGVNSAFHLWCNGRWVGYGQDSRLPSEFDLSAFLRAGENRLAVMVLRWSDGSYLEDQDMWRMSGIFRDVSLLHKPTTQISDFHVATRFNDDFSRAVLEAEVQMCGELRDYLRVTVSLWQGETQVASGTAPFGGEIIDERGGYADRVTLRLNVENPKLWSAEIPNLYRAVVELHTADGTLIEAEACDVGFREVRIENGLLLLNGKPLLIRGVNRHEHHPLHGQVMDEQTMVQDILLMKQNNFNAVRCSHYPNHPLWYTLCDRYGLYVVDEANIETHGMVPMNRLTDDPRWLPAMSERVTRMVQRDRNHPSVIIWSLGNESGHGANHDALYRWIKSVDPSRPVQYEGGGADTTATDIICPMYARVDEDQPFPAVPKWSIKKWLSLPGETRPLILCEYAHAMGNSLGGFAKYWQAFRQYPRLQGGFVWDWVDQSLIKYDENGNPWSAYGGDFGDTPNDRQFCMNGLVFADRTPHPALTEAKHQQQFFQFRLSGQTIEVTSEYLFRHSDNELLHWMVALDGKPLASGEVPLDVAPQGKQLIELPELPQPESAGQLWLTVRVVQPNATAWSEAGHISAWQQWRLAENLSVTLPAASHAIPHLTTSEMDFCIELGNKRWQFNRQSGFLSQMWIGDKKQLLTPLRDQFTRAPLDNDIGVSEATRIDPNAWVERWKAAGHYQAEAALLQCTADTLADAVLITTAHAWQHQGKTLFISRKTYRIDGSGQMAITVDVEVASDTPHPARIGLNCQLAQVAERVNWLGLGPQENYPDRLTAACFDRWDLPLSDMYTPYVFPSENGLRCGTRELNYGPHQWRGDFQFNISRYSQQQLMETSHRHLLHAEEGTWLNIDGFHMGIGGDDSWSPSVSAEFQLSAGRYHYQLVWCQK
inhibition (Saccharomyces cerevisiae [1]),inhibition (Saccharomyces cerevisiae [2]),inhibition (Aspergillus niger),inhibition [3],inhibition [4],Activity (Helix pomatia),Structure (SMILES),Ki [5] [µM],Ki [6] [µM],Ki [7] [µM],Ki (Alpha-mannosidase) [µM]
Active,Active,Active,Active,Active,Active,O=C1OC[C@@H]2[C@@H](O)[C@H](O)[C@H](O)[C@@H](NCCCCCCn3cc(COC[C@H]4O[C@@H]5O[C@H]6[C@H](O)[C@@H](OCc7cn(CCCCCCN[C@@H]8[C@@H](O)[C@@H](O)[C@H](O)[C@H]9COC(=O)N98)nn7)[C@@H](O[C@H]7[C@H](O)[C@@H](OCc8cn(CCCCCCN[C@@H]9[C@@H](O)[C@@H](O)[C@H](O)[C@H]%10COC(=O)N%109)nn8)[C@@H](O[C@H]8[C@H](O)[C@@H](OCc9cn(CCCCCCN[C@@H]%10[C@@H](O)[C@@H](O)[C@H](O)[C@H]%11COC(=O)N%11%10)nn9)[C@@H](O[C@H]9[C@H](O)[C@@H](OCc%10cn(CCCCCCN[C@@H]%11[C@@H](O)[C@@H](O)[C@H](O)[C@H]%12COC(=O)N%12%11)nn%10)[C@@H](O[C@H]%10[C@H](O)[C@@H](OCc%11cn(CCCCCCN[C@@H]%12[C@@H](O)[C@@H](O)[C@H](O)[C@H]%13COC(=O)N%13%12)nn%11)[C@@H](O[C@H]%11[C@H](O)[C@@H](OCc%12cn(CCCCCCN[C@@H]%13[C@@H](O)[C@@H](O)[C@H](O)[C@H]%14COC(=O)N%14%13)nn%12)[C@@H](O[C@H]4[C@H](O)[C@H]5OCc4cn(CCCCCCN[C@@H]5[C@@H](O)[C@@H](O)[C@H](O)[C@H]%12COC(=O)N%125)nn4)O[C@@H]%11COCc4cn(CCCCCCN[C@@H]5[C@@H](O)[C@@H](O)[C@H](O)[C@H]%11COC(=O)N%115)nn4)O[C@@H]%10COCc4cn(CCCCCCN[C@@H]5[C@@H](O)[C@@H](O)[C@H](O)[C@H]%10COC(=O)N%105)nn4)O[C@@H]9COCc4cn(CCCCCCN[C@@H]5[C@@H](O)[C@@H](O)[C@H](O)[C@H]9COC(=O)N95)nn4)O[C@@H]8COCc4cn(CCCCCCN[C@@H]5[C@@H](O)[C@@H](O)[C@H](O)[C@H]8COC(=O)N85)nn4)O[C@@H]7COCc4cn(CCCCCCN[C@@H]5[C@@H](O)[C@@H](O)[C@H](O)[C@H]7COC(=O)N75)nn4)O[C@@H]6COCc4cn(CCCCCCN[C@@H]5[C@@H](O)[C@@H](O)[C@H](O)[C@H]6COC(=O)N65)nn4)nn3)N12,–,–,–,–
–,–,–,–,–,–,N[C@@H]1[C@@H](O)[C@@H](O)[C@H](O)[C@H]2COC(=O)N12,20 to 200,20 to 200,20 to 200,7
